# Laboratory results: patent publication US20190225650A1, “PEPTIDOMIMETIC MACROCYCLES AND USE THEREOF IN REGULATING HIF1ALPHA” (AILERON THERAPEUTICS, INC., priority 2013, published 2019)
# Bridge positions count the residues as written; N and C are the ends. Square brackets hold non-standard residues; d marks the D form. Peptide text beside a SMILES is read from it. R8 = C=CCCCCCC[C@@](C)(N)C(=O)O; S5 = C=CCCC[C@](C)(N)C(=O)O; Nle = CCCC[C@H](N)C(=O)O
# Key:
# HRE-bla ME-180 cells [1] = experiment: Reporter gene assay (HRE-bla ME-180 HIF reporter, GeneBLAzer); format: cell-based, human; details: for EC50: 24 hour normoxia
# Method in brief: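 A FRET β-lactamase readout of HIF transcription was used. After compound treatment in 0.3% DMSO/media under normoxic conditions, 20 μl of 6× LiveBLAzer-FRET B/G (CCF4-AM) substrate was added. Plates sat 3 hr at room temperature in the dark and were read at 409 Ex/460Em and 409Ex/530Em on a Synergy 2. Inhibition was compared against DMSO vehicle controls, with chetomin as positive control.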
# HRE-bla ME-180 cells [2] = experiment: Cell proliferation assay (viability, MTT, 1% FBS); format: cell-based, human
# Method in brief: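 Viable cell number was measured with the CellTiter 96 (MTT) kit after compounds were applied for a 16 h normoxic (21% O2) pretreatment, followed by further normoxic or hypoxic (1% O2) culture. Cells: 2×10^4 ME-180 per well, Opti-MEM + 1% FBS, 0.5% DMSO vehicle.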
# [3] = target: T1, flag-tagged HIF1α (AA 786-826) / His6-tagged p300 (AA 323-423) complex (Homo sapiens, UniProt Q09472); experiment: HIF1α p300 displacement assay (TR FRET, +CHAPS); format: binding; details: read-out: IC50 (nM) (HIF1α_p300 Displacement + CHAPS)
# T1 construct: His6-tagged p300 (AA 323-423); made in house; host or cells: E. coli (pETDuet vector)
# T1 sequence (Q09472 323-423, one chain of several): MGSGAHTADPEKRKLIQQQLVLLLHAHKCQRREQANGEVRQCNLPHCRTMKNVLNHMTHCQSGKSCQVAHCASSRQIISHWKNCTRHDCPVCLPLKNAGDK
# Method in brief: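 In this TR-FRET displacement format, peptides compete HIF1α C-terminal transactivation domain off p300-CH. They were preincubated 1 h at room temperature with 300 nM complex in HEPES pH 7.4/NaCl buffer with 7.5 mM CHAPS and 1 mM DTT. Anti-His-D2 (4 nM) and anti-Flag-K (0.5 μM) followed for 2 h, and a one-site fit of the fluorescence ratio gave IC50.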
EC50 (HRE-bla ME-180 cells [1]) [µM],IC50 [3] [nM],SMILES,18 h Avg % max inhibition at top conc (HIF Rptr-24 hrs normoxia) (μM) (HRE-bla ME-180 cells [1]),Viability 1% FBS AVG (MTT V3-24 hr Normoxia) (μM) (HRE-bla ME-180 cells [2])
> 30,> 700,"CCCC[C@@H]1NC(=O)[C@H](CC(C)C)NC(=O)[C@](C)(NC(=O)[C@H](CCC(=O)O)NC(=O)[C@H](CCC(=O)O)NC(=O)[C@H](CC(=O)O)NC(=O)[C@@H](NC(=O)[C@H](CC(N)=O)NC(=O)[C@@H](NC(=O)[C@H](CCC(N)=O)NC(=O)[C@H](CC(=O)O)NC(=O)[C@H](CC(C)C)NC(=O)[C@]2(C)CCCC=CCCC[C@](C)(NC(=O)[C@H](CCC(=O)O)NC(=O)CNC(=O)[C@H](CCC(N)=O)NC(=O)[C@H](CC(C)C)NC(=O)[C@H](CC(C)C)NC(C)=O)C(=O)N[C@@H](CC(C)C)C(=O)N[C@@H](CC(C)C)C(=O)N[C@@H](CCCNC(=N)N)C(=O)N2)C(C)C)[C@@H](C)CC)CCCCCCC=CCCC[C@@](C)(C(=O)N[C@@H](CCCC)C(=O)NCC(N)=O)NC(=O)[C@H]([C@@H](C)CC)NC(=O)[C@H](C(C)C)NC(=O)[C@H](CC(C)C)NC(=O)[C@H](CO)NC1=O [SP-330] (Ac-LLQGE[S5]LLR[S5]LDQVNIDEE[R8]L[Nle]SLVI[S5][Nle]G-NH2; staple 6-10, 20-27)",+ (<10: +),++++ (≥30: ++++)
> 30,≤ 200,"CCCC[C@@H]1NC(=O)[C@H](CC(C)C)NC(=O)[C@](C)(NC(=O)[C@H](CCC(=O)O)NC(=O)[C@H](CCC(=O)O)NC(=O)[C@H](CC(=O)O)NC(=O)[C@@H](NC(=O)[C@H](CC(N)=O)NC(=O)[C@@H](NC(=O)[C@]2(C)CCCC=CCCCCCC[C@@](C)(NC(=O)[C@H](CCC(=O)O)NC(=O)CNC(=O)[C@H](CCC(N)=O)NC(=O)[C@H](CC(C)C)NC(=O)[C@H](CC(C)C)NC(C)=O)C(=O)N[C@@H](CC(C)C)C(=O)N[C@@H](CC(C)C)C(=O)N[C@@H](CCCNC(=N)N)C(=O)N[C@@H](C)C(=O)N[C@@H](CC(C)C)C(=O)N[C@@H](CC(=O)O)C(=O)N2)C(C)C)[C@@H](C)CC)CCCCCCC=CCCC[C@@](C)(C(=O)N[C@@H](CCCC)C(=O)NCC(N)=O)NC(=O)[C@H]([C@@H](C)CC)NC(=O)[C@H](C(C)C)NC(=O)[C@H](CC(C)C)NC(=O)[C@H](CO)NC1=O [SP-332] (Ac-LLQGE[R8]LLRALD[S5]VNIDEE[R8]L[Nle]SLVI[S5][Nle]G-NH2; staple 6-13, 20-27)",+ (<10: +),++++ (≥30: ++++)
> 30,200 to 400,CCCC[C@H](NC(=O)[C@H](CCC(=O)O)NC(=O)[C@@H](NC(=O)[C@@H](NC(=O)[C@H](CC(C)C)NC(=O)[C@]1(C)CCCC=CCCC[C@](C)(NC(=O)[C@H](CCC(=O)O)NC(=O)[C@H](CC(=O)O)NC(=O)[C@@H](NC(=O)[C@H](CC(N)=O)NC(=O)[C@@H](NC(=O)[C@H](CCC(N)=O)NC(=O)[C@H](CC(=O)O)NC(=O)[C@H](CC(C)C)NC(=O)[C@H](C)NC(=O)[C@H](CCCNC(=N)N)NC(=O)[C@H](CC(C)C)NC(=O)[C@H](CC(C)C)NC(=O)[C@H](CCC(=O)O)NC(=O)[C@H](CCC(=O)O)NC(=O)CNC(=O)[C@H](CCC(N)=O)NC(=O)[C@H](CC(C)C)NC(=O)[C@H](CC(C)C)NC(C)=O)C(C)C)[C@@H](C)CC)C(=O)N[C@@H](C(C)C)C(=O)N[C@@H](CC(C)C)C(=O)N[C@@H](CCCC)C(=O)N1)C(C)C)[C@@H](C)CC)C(N)=O [SP-334] (Ac-LLQGEELLRALDQVNIDE[S5]VL[Nle][S5]LVIE[Nle]-NH2; staple 19-23),+ (<10: +),++++ (≥30: ++++)
> 30,400 to 700,CCCC[C@H](NC(=O)[C@]1(C)CCCC=CCCC[C@](C)(NC(=O)[C@H](CCCC)NC(=O)[C@H](CC(C)C)NC(=O)[C@@H](NC(=O)[C@H](CCC(=O)O)NC(=O)[C@H](CCC(=O)O)NC(=O)[C@H](CC(=O)O)NC(=O)[C@@H](NC(=O)[C@H](CC(N)=O)NC(=O)[C@@H](NC(=O)[C@H](CCC(N)=O)NC(=O)[C@H](CC(=O)O)NC(=O)[C@H](CC(C)C)NC(=O)[C@H](C)NC(=O)[C@H](CCCNC(=N)N)NC(=O)[C@H](CC(C)C)NC(=O)[C@H](CC(C)C)NC(=O)[C@H](CCC(=O)O)NC(=O)[C@H](CCC(=O)O)NC(=O)CNC(=O)[C@H](CCC(N)=O)NC(=O)[C@H](CC(C)C)NC(=O)[C@H](CC(C)C)NC(C)=O)C(C)C)[C@@H](C)CC)C(C)C)C(=O)N[C@@H](CC(C)C)C(=O)N[C@@H](C(C)C)C(=O)N[C@@H]([C@@H](C)CC)C(=O)N1)C(N)=O [SP-335] (Ac-LLQGEELLRALDQVNIDEEVL[Nle][S5]LVI[S5][Nle]-NH2; staple 23-27),+ (<10: +),++++ (≥30: ++++)
> 30,> 700,CCCC[C@H](NC(=O)[C@H](CCC(=O)O)NC(=O)[C@]1(C)CCCC=CCCCCCC[C@@](C)(NC(=O)[C@H](CCC(=O)O)NC(=O)[C@H](CC(=O)O)NC(=O)[C@@H](NC(=O)[C@H](CC(N)=O)NC(=O)[C@@H](NC(=O)[C@H](CCC(N)=O)NC(=O)[C@H](CC(=O)O)NC(=O)[C@H](CC(C)C)NC(=O)[C@H](C)NC(=O)[C@H](CCCNC(=N)N)NC(=O)[C@H](CC(C)C)NC(=O)[C@H](CC(C)C)NC(=O)[C@H](CCC(=O)O)NC(=O)[C@H](CCC(=O)O)NC(=O)CNC(=O)[C@H](CCC(N)=O)NC(=O)[C@H](CC(C)C)NC(=O)[C@H](CC(C)C)NC(C)=O)C(C)C)[C@@H](C)CC)C(=O)N[C@@H](C(C)C)C(=O)N[C@@H](CC(C)C)C(=O)N[C@@H](CCCC)C(=O)N[C@@H](CO)C(=O)N[C@@H](CC(C)C)C(=O)N[C@@H](C(C)C)C(=O)N1)C(N)=O [SP-336] (Ac-LLQGEELLRALDQVNIDE[R8]VL[Nle]SLV[S5]E[Nle]-NH2; staple 19-26),+ (<10: +),++++ (≥30: ++++)
> 30,400 to 700,CCCC[C@H](NC(=O)[C@]1(C)CCCC=CCCCCCC[C@@](C)(NC(=O)[C@H](CCC(=O)O)NC(=O)[C@H](CCC(=O)O)NC(=O)[C@H](CC(=O)O)NC(=O)[C@@H](NC(=O)[C@H](CC(N)=O)NC(=O)[C@@H](NC(=O)[C@H](CCC(N)=O)NC(=O)[C@H](CC(=O)O)NC(=O)[C@H](CC(C)C)NC(=O)[C@H](C)NC(=O)[C@H](CCCNC(=N)N)NC(=O)[C@H](CC(C)C)NC(=O)[C@H](CC(C)C)NC(=O)[C@H](CCC(=O)O)NC(=O)[C@H](CCC(=O)O)NC(=O)CNC(=O)[C@H](CCC(N)=O)NC(=O)[C@H](CC(C)C)NC(=O)[C@H](CC(C)C)NC(C)=O)C(C)C)[C@@H](C)CC)C(=O)N[C@@H](CC(C)C)C(=O)N[C@@H](CCCC)C(=O)N[C@@H](CO)C(=O)N[C@@H](CC(C)C)C(=O)N[C@@H](C(C)C)C(=O)N[C@@H]([C@@H](C)CC)C(=O)N1)C(N)=O [SP-337] (Ac-LLQGEELLRALDQVNIDEE[R8]L[Nle]SLVI[S5][Nle]-NH2; staple 20-27),+ (<10: +),++++ (≥30: ++++)
